From BindingDB's records for PubMed 11303056 (Kissei Pharmaceutical, 2001)

Experiments:
[1] = biological target: Beta-3 adrenergic receptor (Homo sapiens, UniProt P13945)
[2] = biological target: Beta-2 adrenergic receptor (Homo sapiens, UniProt P07550)
Chain of Beta-2 adrenergic receptor (P07550 whole entry): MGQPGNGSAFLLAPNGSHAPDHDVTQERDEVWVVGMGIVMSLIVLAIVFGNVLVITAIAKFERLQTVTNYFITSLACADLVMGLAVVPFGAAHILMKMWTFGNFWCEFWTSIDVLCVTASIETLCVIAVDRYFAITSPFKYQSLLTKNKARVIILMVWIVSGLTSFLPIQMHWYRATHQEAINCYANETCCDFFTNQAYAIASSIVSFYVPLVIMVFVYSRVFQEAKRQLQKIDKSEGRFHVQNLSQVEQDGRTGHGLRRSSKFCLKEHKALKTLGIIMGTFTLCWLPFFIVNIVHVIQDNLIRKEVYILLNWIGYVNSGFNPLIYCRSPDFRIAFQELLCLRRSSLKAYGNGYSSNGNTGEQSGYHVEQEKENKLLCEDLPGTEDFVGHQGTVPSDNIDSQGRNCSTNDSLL

Chain of Beta-3 adrenergic receptor (P13945 whole entry): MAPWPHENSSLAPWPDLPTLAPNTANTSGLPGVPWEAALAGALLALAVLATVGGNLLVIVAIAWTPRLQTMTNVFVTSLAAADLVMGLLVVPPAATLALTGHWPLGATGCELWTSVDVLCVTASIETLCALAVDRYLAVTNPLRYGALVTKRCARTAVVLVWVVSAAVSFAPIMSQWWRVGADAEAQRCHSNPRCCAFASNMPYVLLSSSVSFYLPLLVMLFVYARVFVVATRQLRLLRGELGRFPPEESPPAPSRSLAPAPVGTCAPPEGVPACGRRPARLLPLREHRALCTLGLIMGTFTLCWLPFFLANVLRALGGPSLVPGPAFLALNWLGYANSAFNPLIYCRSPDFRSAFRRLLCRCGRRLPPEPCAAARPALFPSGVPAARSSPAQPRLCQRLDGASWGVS

`CN(C)C(=O)COc1ccc2c(c1)C[C@@H](NC[C@H](O)c1ccc(O)c(CCO)c1)CC2` [KUR-1246] was tested, and the Ki [1] was > 10000 nM and the Ki [2] was 25.7 nM.
